Assay results from patent US11028127B2, “Peptides capable of reactivating p53 mutants” (Yeda Research and Development Co. Ltd., priority 2013, dated 2021).

How the values were obtained:
Type in all cases: cell-based
[1] = tested on: Mut-p53-expressing human cancer cell lines; test: Crystal violet viability assay on further cell lines; conditions: cell line not stated
Experimental: (§1) Cells were cultured in 96 wells plates with 2500-4000 cells/well in 0.1 ml and incubated overnight at 37° C. in order to adhere to the plate. Serial dilutions of different peptides (0.5 μg/ml) were added in 0.1 ml aliquots and the plates incubated for additional 48 h at 37° C. Then medium was removed and cell lysis was determined by staining the cells with crystal violet (0.5%) in methanol/water (1:4, v/v), 50 μl each well, for 10 min, followed by 3 washes with PBS. Afterwards, 10% acetic acid (50 μl) was added to each well and shaken for 10 min. Then, automatic plate reading was performed at 595 nm.
(§2) An important indication for the reactivating peptides activity is their effect in-vivo on cancer cells that express Mut-p53. In particular, reactivating peptides that can cause specifically Mut-p53-dependent death of cancer cells, with minimal toxic effects on normal cells are desired. A crystal-violet based viability assay, in which crystal-violet is employed to stain cells that adhere to the plate and therefore the amount of dye is proportional to cell number was used to determine the effect of the various test peptides on Mut-p53-dependent death.
Cells were plated in 96-well plates, at calibrated density that allows them to grow for 48 hours without reaching confluence. Peptides are added 6 hours later. […]

[2] = tested on: WI-38 fibroblasts overexpressing R175H p53 (WI38-175); test: Crystal violet viability assay; conditions: 48 hours; much more prominent than in mNoxa-i control cells
Experimental: (§3) FIGS. 13A and 13B are bar graphs illustrating the effect of various tested peptides on the viability of cells expressing Mut-p53, as determine by crystal violet assay. WI-38 fibroblasts expressing endogenous WT p53 were infected with retroviruses expressing either mouse Noxa shRNA (WI38-m-Noxa-i) as a nonspecific control or the R175H p53 mutant for stable overexpression of mutant p53 (WI38-175). The cells (WI38-m-Noxa-i or WI38-175) were seeded at 3000 cells per well in 96-well plates. Tested peptides were added to the cells. Different concentrations of etoposide (cytotoxic drug, 4′-Demethyl-epipodophyllotoxin 9-[4,6-O—(R)-ethylidene-beta-D-glucopyranoside], 4′-(dihydrogen phosphate) were used as positive control for cell death and as a standard reference curve to assess the effect of tested peptides. 48 hours after treatment, cells were washed with PBS to exclude dead cells and debris, and cells that remained attached to the plate were stained with crystal-violet for 30 minutes. Crystal violet was removed and cells were washed 4 times with PBS to remove residual crystal violet. Then, the stained cells were dissolved in 10% acetic acid and plates were taken for optical density measurement at 595 nM (optimal for crystal violet). The bar graphs of FIGS. 13A and 13B show the optical density reads at 595 nm, which reflect the number of cells in the plate after treatment, normalized to the non-treated (NT) samples.
as §1, §2
(§4) Cells were plated in 96-well plates, at calibrated density that allows them to grow for 48 hours without reaching confluence. Peptides are added 6 hours later. Different concentrations of etoposide (cytotoxic drug) were used as positive control for cell death and as a standard reference curve to assess the effect of tested peptides. 48 hours after treatment, cells were washed with PBS to exclude dead cells and debris, and cells that remained attached to the plate were stained with crystal-violet for 30 minutes. Crystal-violet was removed and cells were washed with PBS 4 times to eliminate remains of crystal-violet. Then, the stained cells were dissolved in 10% acetic acid and plates were taken for optical density measurement at 595 nM (specific to crystal-violet).
(§5) FIGS. 13A and 13B illustrate a representative experiment of screening performed on 128 synthesized peptides. In this experiment, WI-38 fibroblasts were used. These cells express endogenous WT p53 and were further infected with a virus expressing either mouse Noxa shRNA, as a nonspecific control or the R175H p53 mutant for stable overexpression of mutant p53. Both of these sub-lines (mNoxa or R175H p53) were seeded at 3000 cells per well and treated as described above. […]

[3] = tested on: WI-38 fibroblasts expressing mouse Noxa shRNA (WI38-m-Noxa-i); test: Crystal violet viability assay; conditions: 48 hours
Experimental: as §3, §1, §2, §4, §5

YRRLLIGMMWRRRRRRRRRRR [pCAP-68]
effect on cell viability [1]: massive cell death | reduction in cell numbers, R175H p53 expressing WI-38 cells [2]: toxic effect on both cell sub-lines | effect on cell numbers, mNoxa-i control WI-38 cells [3]: toxic effect on both cell sub-lines
